Earlier results as cited in patent US20230218541A1, “Enhanced Moisturizing Lotion Compositions” (priority 2019, published 2023).

tested on: coronaviruses, including SARS-CoV-2, SARS-CoV, MERS-CoV, and HCoVs; details: 62% to 71% ethanol, 0.5% hydrogen peroxide or 0.1% sodium hypochlorite

SMILES	Time to efficient inactivation of coronaviruses on contact with surface disinfectant
CCO [ethanol]	one
OO [hydrogen peroxide]	one
OCl [sodium hypochlorite]	one
